Literature values as cited in patent US20160074320A1, “PHARMACEUTICAL COMPOSTIONS COMPRISING KISSPEPTIN OR DERIVATIVES THEREOF” (OURO FINO SAÚDE ANIMAL LTDA, priority 2013, published 2016).
Ends that are not written are not given here.

Experiments:
sheep [1] = conditions: Kp-10 applied 30 h after removal of intra-vaginal progesterone device (CIDR)
sheep [2] = conditions: sheep in anestrus, low and sustained (30 to 48 h) doses IV

## Kp-10: 10 amino acid fragment cleaved from kisspeptin, the 145 amino acid protein encoded by Kiss-1 gene (YNWNSFGLRF; ends and bridges not checked; UniProt Q15726 112-121, looked up, fragment)
Prepubertal heifers; IV administration
  hormone release: induces the release of LH and growth hormone (GH)
Prepubertal heifers; IV injections
  LH pulses (Redmond and collaborators): increase of frequency and amplitude of the pulses of LH
Sheep [1]
  peak of LH, time after removal of CIDR: ~32 h
Sheep [2]
  ovulation, share of animals: more than 80%
